According to patent US20200093782A1, “ARIANTS OF 2-[6-(4-CHLOROPHENOXY)HEXYL]-OXIRANE-2-CARBOXYLIC ACID FOR USE IN THE TREATMENT, PREVENTION AND/OR AMELIORATION OF BRAIN DISEASES” (Meta-IQ ApS, priority 2016, published 2020):

How the values were obtained:
[1] = tested on: rats; assay: Sucrose consumption in rats after drinking the drug (test of crossing the BBB); format: in vivo, rat
Description: First rats are given R(+)-etomoxir ethyl ester formulated water (4 mg/day) every day for 20 days. Then once a week the sucrose consumption was measured. This study is designed to test is R(+)-etomoxir ethyl ester reaches the brain and therefore is it can cross the blood-brain-barrier (BBB).
Blocking CPT-1 in hypothalamus (applied in the drinking water) […] food intake.

[2] = tested on: rats; assay: Long term memory test (light/dark shock compartment) with or without MK801; format: in vivo, rat; details: MK801, sub cutaneous injection 1 hour before the test
Description: Rats are put in a cage where in the dark part (where they like to be) the bedding gives a shock. They are put in the light part during training. The next day the rats are put in the light part again, when long term memory is there, they will not like to go in the dark part (shock compartment).
MK801, blocks the generation of memory.
(§1) Etomoxir was given by sub cutaneous injection 1 hour before the test.

[3] = tested on: C57B16 mice; assay: Mouse EAE model (MOG 35-55), therapeutic treatment; format: in vivo; details: 1 mg/kg/day s.c. in olive oil for 2 weeks, start ten days after MOG injection
Description: Six week old C57B16 mice were bred and kept at conventional animal facilities at the University of Copenhagen. Female Lewis rats, 2 months old were used for this study.
All animals were weighed and scored clinically on a daily basis. During progression of EAE, leading to motor disabilities, animals had water in a Petri dish and soaked chow for easy intake to ensure sufficient intake of liquid and nutrients. Healthy animals were used as comparison and control of the EAE exposed animals. […]
The animals were monitored daily, weighed and clinically scored according to the following scale (Imrich and Harzer 2001): 0, no clinical signs of EAE; 1, loss of tail tonus; 2, mild paresis in one or both hindlimbs; 3, moderate paresis in one or both hindlimbs; 4, severe paresis or paralysis in one or both hindlimbs; 5, paralysis in one or both hindlimbs and visible paresis in one or both forelimbs, incontinence; 6, moribund. […]
CPT1 Blockers Have a Therapeutic Effect in Rodent Models with EAE. […] The animals were daily tested for body weight and disease score (Disease was scored as follows; 0=no disease, 1=limp tail, 2=hind-limb paresis, 3=hind-limb paralysis, 4=hind/forelimb paralysis, and 5=death). […]

[4] = tested on: Lewis rats; assay: Rat EAE model (MBP in CFA); format: in vivo
[5] = tested on: rats; assay: Short term memory test (3 corridors, alternation ratio) with or without MK801; format: in vivo, rat; details: MK801, sub cutaneous injection 1 hour before the test
Description: Rats are put in a compartment with 3 corridors. While looking for food, they will first go in 1 corridor, then when no food is found go in the next and when they have a good short term memory, go in the 3rd after that. (this is measured as alternation ratio) MK801 destroys short term memory. Etomoxir restores short term memory.
as §1

[6] = tested on: Male Wistar rats; assay: Chronic mild stress (CMS) induced depression, sucrose consumption test; format: in vivo, rat
Description: Treatment of stress-induced depression by blocking carnitine palmitoyl transferase 1 Rats were initially exposed to four weeks of CMS and subsequently exposed to stressors for another five weeks combined with drug or vehicle treatment (FIG. 7). The intake of sucrose solution was used in order to determine the depression status among rats. […] Moreover, statistical significant difference was found between Escitalopram and Etomoxir treatment in week two, four and five.
The percentage of animals responding over time receiving Etomoxir, Escitalopram or vehicle was compared (FIG. 8). The criterion for responders was set at 20% increase in intake of sucrose at the respective weeks compared to baseline prior to onset of treatment. The percentage of responding rats to Etomoxir treatment was higher than Escitalopram treatment.
Male Wistar rats were used for the CMS model. The weight of the rats was approximately 200 g when the experiment was initiated. The rats were housed singly with 12 h light/dark cycle and food and water was available ad libitum except when these parameters were applied as stress inducers. The following paragraphs concerning the CMS model was performed according to the protocol by Wiborg et al.
In order to quantify the hedonic state of the animals a sucrose consumption test was performed. The animals were trained in five weeks in order to consume a palatable sucrose solution. […]

SMILES | sucrose consumption ([1]; 4 mg/day in drinking water, every day for 20 days, measured once a week) | crossing of the blood-brain-barrier (BBB) ([1]; oral (drinking water), concluded from increased sucrose consumption) | animals with restored long term memory [2] | symptom-free animals at the end of the study [3] | therapeutic effects when started at day 1 or day 5 ([4]; treatment from day 1 or day 5 after induction, compared with placebo) | disease- and symptom-free rats ([4]; treatment started at day 7 after induction, read at day 11 (end of study)) | short term memory [5] | percentage of responding (healthy) rats ([6]; 5 weeks of treatment with continued stress, responder = 20% increase in sucrose intake vs baseline) | intake of sucrose solution compared to vehicle group ([6]; five weeks of i.p. daily treatment under stress, Etomoxir 4 mg/kg, Escitalopram 5 mg/kg)
CCOC(=O)[C@@]1(CCCCCCOc2ccc(Cl)cc2)CO1 [R(+)-etomoxir ethyl ester, R(+)-2-[6-(4-chlorophenoxy)hexyl]-oxirane-2-carboxylic acid ethyl ester] | increased sucrose consumption | can cross the blood-brain-barrier (BBB) and reach the brain | 40% | 52% | significantly better therapeutic effects compared to IFNb | 25% | restores the animal's short term memory |  | 
CN(C)CCC[C@@]1(c2ccc(F)cc2)OCc2cc(C#N)ccc21 [Escitalopram] |  |  |  |  |  |  |  | 57% | no significant difference
